The source of these data is publication PMC9672079, “Micro-PET imaging of hepatitis C virus NS3/4A protease activity using a protease-activatable retention probe” (Frontiers in Microbiology, 2022).

Data set [1] in a line: Blood kinetics (half-life) of TAT-ΔNS3/4A-124I-FITC in mice. Further details: species or system BALB/c nude mice. Particulars: mouse, in vivo, iv, 3700 kBq; BALB/c mice, i.v., 4 h after injection, gamma-counter; read-out: radioactivity in the blood. The source says:
BALB/c nude mice (n = 3) were intravenously injected with 3,700 kBq TAT-ΔNS3/4A-^124I-FITC, and blood samples were periodically removed from the tail vein of the mice. The blood was weighed on an analytical balance and assayed for radioactivity in a multichannel gamma-counter. The initial and terminal half-life of the probe was estimated by fitting the data to a two-phase exponential decay model with Prism 4 software (GraphPad Software, San Diego, CA, USA).
(§1) FIGURE 4 Specificity and half-life of TAT-ΔNS3/4A-^124I-FITC. (A) NS3/4A-HCC36 and HCC36 cells were incubated with 37 kBq of TAT-ΔNS3/4A-^124I-FITC in the presence or absence of 2 μM Telaprevir at 37°C for 1 h. The cells were washed with DMEM containing 10% serum three times per hour. The cells were collected by treatment with trypsin at the indicated times. The radioactivity of the cells was then measured with a gamma-counter. The CPM was normalized by protein concentration. […] Error bar: standard error of triplicate determinations.

The nature of data set [2]: Long-term biodistribution in xenograft mice. It is filed as in vivo. Conditions: i.v. 3,700 kBq, gamma-counter. The method, then: Supplementary file Image_4.TIF: Supplementary Figure 4 Long-term biodistribution of TAT-ΔNS3/4A-^124I-FITC in xenograft mice. Mice were injected with 3,700 kBq of TAT-ΔNS3/4A-^124I-FITC. Selected organs and tumors were removed from the mice after 4, 12, and 24 h. The radioactivity of individual organs was measured using a gamma-counter and normalized for sample weights. The biodistribution of TAT-ΔNS3/4A-^124I-FITC in selected organs was expressed as percentage injected dose/g tissue. Data represent mean ± SEM. Click here for additional data file.

The test system of data set [3] is NS3/4A-HCC36 and HCC36 tumors. Description: Micro-PET imaging of NS3/4A activity in xenograft mice (ROI analysis). It is filed as in vivo, BALB/c nude mice. Conditions: 6 h, n = 3. The method, then:
BALB/c nude mice (n = 3) bearing established HCC36 and NS3/4A-HCC36 (100–200 mm^3) in their right and left hind leg, respectively, were anesthetized by halothane vapor with a vaporizer system. The mice were feed the Lugol’s solution and then intravenously injected with 3,700 kBq (in 100 μL) TAT-ΔNS3/4A-^124I-FITC. PET imaging was sequentially performed at 2, 4, and 6 h. To test the specificity of TAT-ΔNS3/4A-^124I-FITC, telaprevir (20 mg/kg/day for 3 days) or control vehicle was intraperitoneally injected into mice (n = 3) 3 days prior to TAT-ΔNS3/4A-^124I-FITC.
The mice were positioned in a micro-PET scanner (R4; Concorde Microsystems, Knoxville, Tenn) with their long axis parallel to the transaxial plane of the scanner. The scanner has a computer-controlled bed with a 10.8-cm transaxial and 8-cm axial field of view. It has no septa and operates exclusively in a three-dimensional list mode. All raw data were first sorted into three-dimensional sinograms, followed by Fourier rebinning and ordered-subsets expectation maximization image reconstruction. Fully three-dimensional list-mode data were collected by using an energy window of 350–750 keV and a time window of 6 nsec. Image pixel size was 0.85 mm transaxially, with a 1.21-mm section thickness. The region of interest was analyzed with ASIPro VM version 5.0 (Concorde Microsystems, Knoxville, TN, USA) analysis software. […]

Data set [4] concerns liver-implanted NS3/4A-HCC36 or HCC36 tumors. Description: Micro-PET imaging in orthotopic liver implantation tumor model (ROI analysis). Conditions: SCID mice n = 3, i.v. 3,700 kBq, micro-PET 4 h. Type of data set: in vivo. An excerpt: The orthotopic liver implantation model was generated as previously described ([Kim et al., 2009]). The NS3/4A-HCC36 tumors or HCC36 tumors from the ectopic tumors were harvested and transplanted into the left liver lobe of SCID mice (n = 3). After 2 weeks, the mice were feed the Lugol’s solution, and then, the 3,700 kBq of TAT-ΔNS3/4A-^124I-FITC was intravenously injected.
The mice were positioned in a micro-PET scanner (R4; Concorde Microsystems, Knoxville, Tenn) with their long axis parallel to the transaxial plane of the scanner. The scanner has a computer-controlled bed with a 10.8-cm transaxial and 8-cm axial field of view. It has no septa and operates exclusively in a three-dimensional list mode. All raw data were first sorted into three-dimensional sinograms, followed by Fourier rebinning and ordered-subsets expectation maximization image reconstruction. Fully three-dimensional list-mode data were collected by using an energy window of 350–750 keV and a time window of 6 nsec. […] The region of interest was analyzed with ASIPro VM version 5.0 (Concorde Microsystems, Knoxville, TN, USA) analysis software.
FIGURE 7 Micro-PET Imaging of NS3/4A activity in orthotopic liver implantation model. […] (B) The accumulation of radioactivity in NS3/4A-HCC36 tumors and HCC36 tumors was measured using a gamma-counter at 2 (white column), 4 (black column), and 6 (gray column) h after probe injection. […]

Data set [5] deals with NS3/4A-HCC36 cells. Description: Cellular retention of radioactivity of TAT-ΔNS3/4A-124I-FITC, gamma-counter. It is filed as cell-based, Human. The method, then:
(§2) HCC36 or NS3/4A-HCC36 (1 × 10^5) cells were seeded with DMEM containing 10% serum in a 24-well plate at 37°C in a CO2 incubator overnight. The cells were incubated with 37 kBq of TAT-ΔNS3/4A-^124I-FITC in the presence or absence of 2 μM telaprevir (Vertex, Cambridge MA) at 37°C for 1 h. After probe staining, the cells were washed using DMEM containing 10% serum per 20 min until the end of the experiment. At different time points, the cells were collected by treatment with trypsin. The radioactivity of the cells was then measured using a gamma-counter. The CPM was normalized by protein concentration.
as §1

The subject of data set [6] is HCC36 cells. The description is as above. Type of data set: cell-based, Human. Particulars: control HCC36 cells, 37 kBq probe 37°C 1 h, cultured 0, 4, 6, 8 h with washing, CPM normalized by protein. Here is the method:
as §2, §1

In data set [7] the test system is liver-implanted NS3/4A-HCC36 or HCC36 tumors. Description: Radioactivity of liver-implanted tumors, gamma-counter. It is filed as in vivo, SCID mice. Conditions: orthotopic liver model, i.v. 3,700 kBq, 6 h. The method, then: (§3) In xenograft model, BALB/c nude mice bearing established NS3/4A-HCC36 and HCC36 tumors (n = 3) were intravenously injected with 3,700 kBq (in 100 μL) TAT-ΔNS3/4A-^124I-FITC. In orthotopic model, SCID mice (n = 3) with NS3/4A-HCC36 or HCC36 tumors implanted in the liver were intravenously also injected with 3,700 kBq (in 100 μL) TAT-ΔNS3/4A-^124I-FITC. Animals were killed after anesthesia with pentobarbital (65 mg/kg) at 2, 4, and 6 h. Radioactivity in isolated tumors and tissues was measured with a multichannel gamma-counter. The biodistribution of the probe was expressed as percentage injected dose per gram of tissue (%ID/g).
FIGURE 7 Micro-PET Imaging of NS3/4A activity in orthotopic liver implantation model. The NS3/4A-HCC36 tumors or HCC36 tumors from the ectopic tumors were harvested and transplanted into the left liver lobe of SCID mice (n = 3). After 2 weeks, the 3,700 kBq of TAT-ΔNS3/4A-^124I-FITC was intravenously injected. (A) PET imaging was performed at 4 h after injection of the probe. (B) The accumulation of radioactivity in NS3/4A-HCC36 tumors and HCC36 tumors was measured using a gamma-counter at 2 (white column), 4 (black column), and 6 (gray column) h after probe injection. Data represent mean ± SEM. Student’s t-test analysis of data. Statistical analysis was compared NS3/4A-HCC36 with HCC36. P < 0.05 was considered statistically significant.

For data set [8], the system named is NS3/4A-HCC36 and HCC36 tumors. Nature of the data set: Biodistribution in xenograft mice, gamma-counter. Type of data set: in vivo, BALB/c nude mice. Here is the method: as §3
FIGURE 6 Biodistribution of TAT-ΔNS3/4A-^124I-FITC in xenograft mice. Mice bearing established NS3/4A-HCC36 and HCC36 tumors were injected with 3,700 kBq of TAT-ΔNS3/4A-^124I-FITC. Selected organs and tumors were removed from the mice after 2 (white column), 4 (black column), and 6 (gray column) h. The radioactivity of individual organs was measured using a gamma-counter and normalized for sample weights. The biodistribution of TAT-ΔNS3/4A-^124I-FITC in selected organs was expressed as percentage injected dose/g tissue. Data represent mean ± SEM.

The test system of data set [9] is NS3/4A-HCC36 cells. Description: Specific retention of probe via flow cytometry. Particulars: 10 μM probe 1 h, washed three times per hour, 8 h. Type of data set: cell-based, Human. The method, then:
(§4) We also used the WT probe (GRKKRRQRRR-[…]-LKKKYK-FITC) and the scrambled sequence probe (GRKKRRQRRR-[…]-LKKKYK) that could not be activated by protease as a control group to test the specific retention of probe via flow cytometry. HCC36 cells, NS3/4A-HCC36 cells, or JFH-1-infected HCC36 cells were incubated with 10 μM TAT-ΔNS3/4A-FITC or 10 μM TAT-scrambled NS3/4A-FITC in the absence or presence of 2 μM telaprevir (NS3/4A protease inhibitor) at 37 °C for 1 h. The cells were washed with DMEM containing 10% serum three times per hour. After culturing for 1 or 8 h, the fluorescence of viable cells was observed via flow cytometry.
(§5) Supplementary file Image_5.TIF: Supplementary Figure 5 To evaluate the specific retention of probe via flow cytometry, we used the WT probe (GRKKRRQRRR-[…]-LKKKYK-FITC) and the scrambled sequence probe (GRKKRRQRRR-[…]-LKKKYK) that could not be activated by protease as a control group to test the specific retention of probe via flow cytometry. HCC36 cells, NS3/4A-HCC36 cells, or JFH-1-infected HCC36 cells were incubated with 10 μM TAT-ΔNS3/4A-FITC or 10 μM TAT-scrambled NS3/4A-FITC in the absence or presence of 2 μM telaprevir (NS3/4A protease inhibitor) at 37°C for 1 h. The cells were washed with DMEM containing 10% serum three times per hour. After culturing for 1 or 8 h, the fluorescence of viable cells was observed via flow cytometry. Click here for additional data file.
A general note: Flow cytometry measures light scatter and fluorescence of single cells or particles in a stream.

The test system of data set [10] is JFH-1-infected HCC36 cells. Description: Specific retention of probe via flow cytometry. Type of data set: cell-based, Human. Particulars: 10 μM probe 1 h, washed three times per hour, 8 h. Here is the method:
as §4, §5

Data set [11] concerns HCC36 cells. Description: Specific retention of probe via flow cytometry. It is filed as cell-based, Human. Particulars: control HCC36 cells, 10 μM probe 1 h, washed three times per hour, 8 h. Here is the method:
as §4, §5

Square brackets hold non-standard residues; d marks the D form. Peptide text beside a SMILES is read from it. * marks the point of attachment. FITC = O=C1OC2(c3ccc(O)cc3Oc3cc(O)ccc32)c2ccc(NC(=S)*)cc21; Tyr(3-I) = N[C@@H](Cc1ccc(O)c(I)c1)C(=O)O

As to `CSCC[C@H](NC(=O)[C@H](CCC(=O)O)NC(=O)[C@H](CC(=O)O)NC(=O)[C@H](CCC(=O)O)NC(=O)[C@H](CC(=O)O)NC(=O)[C@H](CCC(=O)O)NC(=O)[C@H](CC(=O)O)NC(=O)[C@H](CCC(=O)O)NC(=O)[C@H](CC(=O)O)NC(=O)[C@H](CCCNC(=N)N)NC(=O)[C@H](CCCNC(=N)N)NC(=O)[C@H](CCCNC(=N)N)NC(=O)[C@H](CCC(N)=O)NC(=O)[C@H](CCCNC(=N)N)NC(=O)[C@H](CCCNC(=N)N)NC(=O)[C@H](CCCCN)NC(=O)[C@H](CCCCN)NC(=O)[C@H](CCCNC(=N)N)NC(=O)CN)C(=O)N[C@@H](CCC(=O)O)C(=O)N[C@@H](CCC(=O)O)C(=O)N[C@@H](CS)C(=O)N[C@@H](C)C(=O)N[C@@H](CO)C(=O)N[C@@H](Cc1c[nH]cn1)C(=O)N[C@@H](CC(C)C)C(=O)N[C@@H](CCCCN)C(=O)N[C@@H](CCCCN)C(=O)N[C@@H](CCCCN)C(=O)N[C@@H](Cc1ccc(O)c(I)c1)C(=O)N[C@@H](CCCCNC(=S)Nc1ccc2c(c1)C(=O)OC21c2ccc(O)cc2Oc2cc(O)ccc21)C(=O)O` [TAT-ΔNS3/4A-^124I-FITC] (H-GRKKRRQRRRDEDEDEDEMEECASHLKKK[Tyr(3-I)]K(FITC)-OH; N-terminus and C-terminus assumed), in data set [1], the tissue uptake at 4 h was 2.6 ± 0.1 %ID/g. In addition, in [2] (24 h), the “radioactivity in tissues at 24 h” value was “did not accumulate in the all of tissues at 24 h”. Moreover, in [2] (organs at 4, 12, 24 h), the “long-term accumulation of probe in kidney (and stomach)” value is “accumulation of probe in kidney and in stomach would quickly reduce at 12 and 24 h”. For the same compound, the “ROI radioactivity, NS3/4A-HCC36 tumors vs HCC36 tumors” value in data set [3] (i.v. 3,700 kBq) stood at 2.53 fold. In data set [3] (telaprevir 20 mg/kg/day i.p. for 3 days before probe), the “ROI radioactivity, NS3/4A-HCC36 tumors vs HCC36 tumors, after inhibitor treatment” value came to 1.31 fold. Further, in data set [4], the “ROI, implanted NS3/4A-HCC36 tumors vs HCC36 tumors” value is on record as 4.75 fold. The “radioactivity retained in the cells” value with NS3/4A-HCC36 cells [5] (37 kBq probe 37°C 1 h, cultured 0, 4, 6, 8 h with washing, CPM normalized by protein) is “A high level of radioactivity was detected”; in the data set with HCC36 cells [6] it was “not in control HCC36 cells”. Also, in the data set on NS3/4A-HCC36 cells [5] (37 kBq probe + 2 μM telaprevir), the “radioactivity retained in the cells after inhibitor treatment” value is listed as “radioactivity did not accumulate”. Also, the “uptake of radioactivity, implanted NS3/4A-HCC36 tumors vs implanted HCC36 tumors” value in data set [7] came out at 3.1 fold. Moreover, in data set [8] (i.v. 3,700 kBq, 2, 4, 6 h), the “radioactivity in normal organs (stomach, kidneys)” value was “high levels of radioactivity were observed in the stomach and kidneys”. In addition, the “accumulation of radioactivity, NS3/4A-HCC36 tumors vs HCC36 tumors” value in [8] (i.v. 3,700 kBq, 6 h, %ID/g, n = 3) stood at 2.7 fold.

Consider “GRKKRRQRRR-ECEEEEESMDDDAH-LKKKYK [scrambled sequence probe]”, for which the “fluorescence retention after culturing for 8 h” value (with NS3/4A-HCC36 cells [9]; in data set [10]; in the data set with HCC36 cells [11]) was “cannot be accumulated in each cell” throughout.
